Test results published in publication PMC9820082, “Synthesis of 9-Hydroxy-1H-Benzo[f]chromene Derivatives with Effective Cytotoxic Activity on MCF7/ADR, P-Glycoprotein Inhibitors, Cell Cycle Arrest and Apoptosis Effects” (International Journal of Molecular Sciences, 2022).

Key:
[1] = test system: HeLa (cervical cancer cell line); experiment: MTT colorimetric cytotoxicity assay, HeLa; format: cell-based, human; settings: 24 h incubation, mean ± standard error
Description: (§1) Three human cancer cell lines, PC-3 (human prostate adenocarcinoma, metastatic), […], were used to test the anti-proliferative activity of β-enaminonitrile (4a–p) using the MTT colorimetric assay at concentrations ranging from 0–100 μM. The representative active cytotoxic substances 4a, 4c, 4d, 4e, 4g, 4i, 4k and 4o were also tested against two normal cell lines, human fetal lung (HFL-1) and human diploid fibroblasts (WI-38), as well as Adriamycin (ADR)-resistant human breast cancer cells (MCF-7/ADR). The reference cytotoxic agents, Vinblastine and Doxorubicin, were used in the tests.
(§2) The cytotoxic activity was appraised using the 3-(4,5-dimethylthiazol-2-yl)-2,5-diphenyltetrazolium bromide (MTT) colorimetric assay for the antitumor cell lines, as reported previously, and the ELISA assay for MCF-7/ADR [69].

[2] = test system: SKOV-3 (ovarian cancer cell line); experiment: MTT colorimetric cytotoxicity assay, SKOV-3; format: cell-based, human; settings: Homo sapiens, SK-OV-3, 24 h, 24 h incubation, mean ± standard error
Description: as §1, §2

[3] = test system: PC-3 (human prostate adenocarcinoma, metastatic); experiment: MTT colorimetric cytotoxicity assay, PC-3; format: cell-based; settings: Homo sapiens; MTT, 24 h incubation, mean ± standard error
Description: as §1
(§3) The tumor cell lines MCF-7, HepG-2, PC-3 MCF-7/ADR, HFL-1 and (WI-38) were obtained from the American Type Culture Collection (ATCC, Rockville, MD, USA). The cells were grown on RPMI-1640 medium supplemented with 10% inactivated fetal calf serum and 50 µg/mL gentamycin. The cells were maintained at 37 ^οC in a humidified atmosphere with 5% CO2 and were subcultured two to three times a week.
as §2

P-glycoprotein (P-gp) = experiment: P-gp content in MCF-7/ADR cell lysate (human P-gp ELISA kit); format: cell-based; settings: human, MCF-7/ADR cells (cell lysate); MCF-7/ADR cell lysate, 48 h, ELISA
Description: P-glycoprotein (P-gp)-mediated multidrug resistance (MDR) is a phenomenon in which cells become resistant to structurally and mechanistically unrelated drugs, resulting in low intracellular drug concentrations. It is one of the noteworthy problems in malignant tumor clinical therapeutics.
The content of P-gp in the MCF-7/ADR cell lysates after incubation with varying conc. (12.5–100 µM) of tested compounds 4a, 4c, 4d, 4e, 4g and 4i following exposure for 48 hr was determined using a commercial human P-gp (Permeability Glycoprotein) ELISA Kit (MBS2506188, MyBioSource Inc., San Diego, CA, USA). Absorption was recorded at 450 nm with a Spectramax Gemini fluorescence microplate reader (Molecular Devices, Sunnyvale, CA, USA).

[4] = test system: Adriamycin (ADR)-resistant human breast cancer cells (MCF-7/ADR); experiment: Cytotoxicity against MCF-7/ADR cells; format: cell-based; settings: 24 h exposure, mean ± standard error
Description: as §1, §3, §2

MCF-7/ADR cells = experiment: Annexin V/PI double staining flow cytometric apoptosis test; format: cell-based, human; settings: IC50 value, 24 h
Source text: One of the optional mechanisms regarding the lethal action of chemotherapeutic medicines is blocking cell cycle progression, triggering apoptosis with otherwise mutual effect. […] The pivotal relation of the newly synthesized MCF-7/ADR “anticancer drugs” was further evaluated using the Annexin V/PI double staining flow cytometric test. […] In comparison to Doxorubicin’s 30% total apoptosis rate, which was nearly identical to 4a, 4c and 4g, compounds 4d, 4e and 4i were leading with percentages of 41%, 31% and 38%, respectively. Only compounds 4a (8.5%) and 4g (11%) had greater effects on necrosis compared to doxorubicin (5%). Other examined substances caused both early and late apoptosis in all treated cells (Figure 7b). Therefore, MCF-7/ADR cytotoxicity is induced by apoptotic processes, apparently without negative effects on P-gp.
(a) The dot plot of the Annexin V/PI-stained cells, treated with the indicated drugs. […] The data are expressed as the mean ± SD of three independent experiments in triplicate. Significances are shown in comparison to control cells (* p < 0.001). TEXT PRINTED IN THE PICTURE: (a) DOX.: 3.33%; 18.41%; 7.85% | (a) 4a: 8.66%; 18.17%; 4.24% | (a) 4c: 2.74%; 12.73%; 9.11% | (a) 4d: 4.85%; 27.44%; 8.73% | (a) 4e: 5.77%; 9.92%; 15.92% | (a) 4g: 11.04%; 3.94%; 7.38% | (a) 4i: 5.54%; 12.87%; 19.61% DOUBTS OF THE COPYIST ABOUT THIS PICTURE: The quadrant percentages in panel (a) are printed very small and blurred, so 3, 5, 6, 8 and 9 cannot be told apart with certainty. […] They are told apart only by their quadrant in the PI / Annexin V-FITC plot, and are listed upper left, upper right, lower right. / The sample line in each plot reads MCF7/ADR. In the 4g plot it is cut off as 'MCF7/AI'. / The panel 'Cont.' (untreated control: 1.56%, 0.15%, 0.48%) is left out because it is not a substance.

[5] = test system: human diploid fibroblasts (WI-38); experiment: Cytotoxicity against normal cell line WI-38; format: cell-based; settings: Homo sapiens, WI-38, 24 h, 24 h incubation, mean ± standard error
Description: as §1, §3, §2

human fetal lung (HFL-1) = experiment: Cytotoxicity against normal cell line HFL-1; format: cell-based; settings: Homo sapiens, HFL1, 24 h, 24 h incubation, mean ± standard error
Description: as §1, §3, §2

[6] = Homo sapiens, NCI/ADR-RES, 24 h

SMILES	melting point [°C]	IC50 at 48 h (P-glycoprotein (P-gp)) [µM]	IC50 ([1]; Homo sapiens, HeLa, 24 h) [µM]	IC50 [2] [µM]	IC50 [3] [µM]	IC50 [4, 6] [µM]	necrosis (MCF-7/ADR cells) [%]	IC50 [4] [µM]	IC50 [5] [µM]	IC50 (human fetal lung (HFL-1)) [µM]	IC50 [1] [µM]
CC[C@]1(O)C[C@@H]2CN(CCc3c([nH]c4ccccc34)[C@@](C(=O)OC)(c3cc4c(cc3OC)N(C)[C@H]3[C@@](O)(C(=O)OC)[C@H](OC(C)=O)[C@]5(CC)C=CCN6CC[C@]43[C@@H]65)C2)C1 [Vinblastine, reference compound]			5.7 ± 1.1	3.2 ± 1.2	7.5 ± 1.3						
N#CC1=C(N)Oc2ccc3ccc(O)cc3c2C1c1c(Cl)cccc1Cl (stereo not shown) [4f, 3-Amino-1-(2,6-Dichlorophenyl)-9-Hydroxy-1H-Benzo[f]chromene-2-Carbonitrile]	196 to 197		4.1 ± 0.3	7 ± 0.4	26.6 ± 3.1						
COc1cccc(C2C(C#N)=C(N)Oc3ccc4ccc(O)cc4c32)c1O (stereo not shown) [4j, 3-Amino-1-(2-Hydroxy-3-Methoxyphenyl)-9-Hydroxy-1H-Benzo[f]chromene-2-Carbonitrile]	269 to 270		50.4 ± 1.3	97.4 ± 0.8	33.5 ± 3.5						
N#CC1=C(N)Oc2ccc3ccc(O)cc3c2C1c1c(F)cccc1F (stereo not shown) [4b, 3-Amino-1-(2,6-Difluorophenyl)-9-Hydroxy-1H-Benzo[f]chromene-2-Carbonitrile]	193 to 194		6.7 ± 0.2	2 ± 0.2	9.4 ± 0.5						
N#CC1=C(N)Oc2ccc3ccc(O)cc3c2C1c1c(F)cccc1Cl (stereo not shown) [4h, 3-Amino-1-(2-Chloro-6-Flourophenyl)-9-Hydroxy-1H-Benzo[f]chromene-2-Carbonitrile]	298 to 299		4.7 ± 0.5	3.1 ± 0.2	11.6 ± 0.8						

Continued, in another order:

melting point [°C]	IC50 at 48 h (P-glycoprotein (P-gp)) [µM]	SMILES	IC50 ([1]; Homo sapiens, HeLa, 24 h) [µM]	IC50 [2] [µM]	IC50 [3] [µM]	IC50 [4, 6] [µM]	necrosis (MCF-7/ADR cells) [%]	IC50 [4] [µM]	IC50 [5] [µM]	IC50 (human fetal lung (HFL-1)) [µM]	IC50 [1] [µM]
265 to 266		COc1ccc(C2C(C#N)=C(N)Oc3ccc4ccc(O)cc4c32)c(OC)c1OC (stereo not shown) [4m, 3-Amino-1-(2,3,4-Trimethoxyphenyl)-9-Hydroxy-1H-Benzo[f]chromene-2-Carbonitrile]	8.8 ± 0.5	3.4 ± 0.5	6.5 ± 1.3						
	50.9	COc1cccc2c1C(=O)c1c(O)c3c(c(O)c1C2=O)C[C@@](O)(C(=O)CO)C[C@@H]3O[C@H]1C[C@H](N)[C@H](O)[C@H](C)O1 [Doxorubicin, reference compound]	1.5 ± 0.3	1.1 ± 0.2	1.3 ± 0.3	18.6 ± 0.2	5				
252 to 253		COc1cc(C2C(C#N)=C(N)Oc3ccc4ccc(O)cc4c32)cc(OC)c1OC (stereo not shown) [4o, 3-Amino-1-(3,4,5-Trimethoxyphenyl)-9-Hydroxy-1H-Benzo[f]chromene-2-Carbonitrile]	5.7 ± 1.8	3.1 ± 0.1	2.1 ± 0.8			23.7 ± 0.4	20.4 ± 0.3	22.2 ± 0.4	
268 to 269		COc1ccc(C2C(C#N)=C(N)Oc3ccc4ccc(O)cc4c32)cc1OC (stereo not shown) [4l, 3-Amino-1-(3,4-Dimethoxyphenyl)-9-Hydroxy-1H-Benzo[f]chromene-2-Carbonitrile]	5.3 ± 0.2	4 ± 1.3	4.1 ± 0.9						
299 to 300		N#CC1=C(N)Oc2ccc3ccc(O)cc3c2C1c1c(F)c(F)c(F)c(F)c1F (stereo not shown) [4p, 3-Amino-9-Hydroxy-1-(Perfluorophenyl)-1H-Benzo[f]chromene-2-Carbonitrile]	3.9 ± 0.4	4.2 ± 0.3	4.5 ± 1.2						
242 to 243		COc1ccc(C2C(C#N)=C(N)Oc3ccc4ccc(O)cc4c32)c(OC)c1 (stereo not shown) [4k, 3-Amino-1-(2,4-Dimethoxyphenyl)-9-Hydroxy-1H-Benzo[f]chromene-2-Carbonitrile]		1.7 ± 0.3	3.7 ± 0.3	36.8 ± 0.2			25.3 ± 1.3	24.2 ± 0.1	6.7 ± 0.1
235 to 236		COc1cc(OC)c(C2C(C#N)=C(N)Oc3ccc4ccc(O)cc4c32)cc1OC (stereo not shown) [4n, 3-Amino-1-(2,4,5-Trimethoxyphenyl)-9-Hydroxy-1H-Benzo[f]chromene-2-Carbonitrile]	4.9 ± 0.5	2.4 ± 0.4	7.6 ± 1.2						
